Experimental data as given in PMC4235314 (Scientific Reports, 2014).

T1: LmrR (Lactococcus lactis, UniProt A2RI36 1-116)
T1 sequence: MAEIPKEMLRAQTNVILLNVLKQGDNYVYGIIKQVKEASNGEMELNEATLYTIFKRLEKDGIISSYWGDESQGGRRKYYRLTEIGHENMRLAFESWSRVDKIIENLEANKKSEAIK


Experiments:
LmrR [1] = molecular target: T2, LmrR (Lactococcus cremoris, UniProt A2RI36); assay: SPR (Biacore […], LmrR on NTA chip), kinetic […] Langmuir fit; format: binding; details: pH 7.4, 25 C, 150 mM NaCl, 50 uM EDTA, 0.005% P-20; dimeric central pore, 1:1 stoichiometry
T2 construct: gene llmg_0323; full-length, synthetic codon-optimised gene in pET28b (NcoI/XhoI), C-terminal His6-tag kept, E. coli BL21(DE3), homodimer

LmrR [2] = molecular target: T2, LmrR; assay: SPR (Biacore […], LmrR on NTA chip), equilibrium one-site fit; format: binding; details: pH 7.4, 25 C, 150 mM NaCl, 50 uM EDTA, 0.005% P-20; dimeric central pore, 1:1 stoichiometry
LmrR [3] = molecular target: T1, LmrR; assay: NMR; 1H-13C HMQC titration, Ile d1 CSPs; low-field shift of Ile-62 d1 13C; SPR: 10 mM HEPES pH 7.4, 150 mM NaCl, 50 uM EDTA, 0.005% surfactant P-20, 25 C (described for compounds); NMR: 10 mM NaPi pH 6.8, 100 mM NaCl, 298 K
LmrR [4] = molecular target: T1, LmrR; assay: SPR; LmrR immobilised on NTA chip; 1:1 Langmuir global fit; text states only 'μM affinity', number in figure; SPR: 10 mM HEPES pH 7.4, 150 mM NaCl, 50 uM EDTA, 0.005% surfactant P-20, 25 C (described for compounds); NMR: 10 mM NaPi pH 6.8, 100 mM NaCl, 298 K

| Molecule | KD (LmrR [2]) | other results |
| --- | --- | --- |
| CCOc1ccc(-c2nc3ccc(-c4nc5ccc(N6CCN(C)CC6)cc5[nH]4)cc3[nH]2)cc1 [Hoechst 33342] |  | KD (LmrR [1]): SPR analyses indicated that these compounds bind to LmrR with various affinities |
| COc1cccc2c1C(=O)c1c(O)c3c(c(O)c1C2=O)C[C@@](O)(C(C)=O)C[C@@H]3O[C@H]1C[C@H](N)[C@H](O)[C@H](C)O1 [daunomycin] | The KD values for H33342 and daunomycin were consistent with those previously reported |  |
| CC[n+]1c(-c2ccccc2)c2cc(N)ccc2c2ccc(N)cc21 [ethidium] | SPR analyses indicated that these compounds bind to LmrR with various affinities |  |
| CCN=c1cc2oc3cc(NCC)c(C)cc3c(-c3ccccc3C(=O)OCC)c-2cc1C [rhodamine 6G] | SPR analyses indicated that these compounds bind to LmrR with various affinities |  |
| lmrCD oligo (33-bp promoter fragment) (dsDNA) DNA 1: CAATTTAATGTAAAGTAGTTTACATTATTTAAC DNA 2: GTTAAATAATGTAAACTACTTTACATTAAATTG |  | binding result (LmrR [3]): binds; binding result (LmrR [4]): binds |
